Results published in patent US20240423907A1, “Improved Nasal Administration of Pharmaceutical Formulations” (Cyrano Therapeutics, Inc., priority 2022, published 2024).

How the values were obtained:
[1] = tested on: subject diagnosed with a sinus infection; assay: Treatment of sinusitis in a subject; format: in vivo; conditions: nasal spray device described herein, effective dose 2× daily in each naris
Text: A subject is admitted to a clinic for nasal congestion, nasal inflammation, facial pain (e.g., pain around the eyes, cheeks, nose and forehead). The subject is diagnosed with a sinus infection. The subject is prescribed a beclomethasone dipropionate composition in a nasal spray device described herein. The subject administers the nasal spray in an effective dose 2× daily in each naris. The nasal spray is characterized by a spray containing a D50 of about 15 μm to about 24 μm, a D90 of from about 30 μm to about 50 μm and where less than about 3% of the droplets in the plume of a spray have a size of less than about 10 μm.

[2] = tested on: subject diagnosed with allergic rhinitis; assay: Treatment of allergic rhinitis in a subject; format: in vivo; conditions: nasal spray device described herein, effective dose 1× daily in each naris
Text: A subject is admitted to a clinic for nasal congestion, sneezing, itchy eyes, and watery eyes. The subject is diagnosed with allergic rhinitis. The subject is prescribed a fluticasone propionate composition in a nasal spray device described herein. The subject administers the nasal spray in an effective dose 1× daily in each naris. The nasal spray is characterized by a spray containing a D50 of about 15 μm to about 24 μm, a D90 of from about 30 μm to about 50 μm, and where less than about 3% of the droplets in the plume of a spray have a size of less than about 10 μm.

| Compound | symptoms of the sinus infection (pain, nasal inflammation and congestion) after administration [1] | symptoms of allergic rhinitis (sneezing, itchy eyes, nasal congestion, watery eyes) after administration [2] |
| --- | --- | --- |
| CCC(=O)OCC(=O)[C@@]1(OC(=O)CC)[C@@H](C)C[C@H]2[C@@H]3CCC4=CC(=O)C=C[C@]4(C)[C@@]3(Cl)[C@@H](O)C[C@@]21C [beclomethasone dipropionate] | reduced symptoms |  |
| CCC(=O)O[C@]1(C(=O)SCF)[C@H](C)C[C@H]2[C@@H]3C[C@H](F)C4=CC(=O)C=C[C@]4(C)[C@@]3(F)[C@@H](O)C[C@@]21C [fluticasone propionate] |  | reduced symptoms |
